Test results: PubChem BioAssay AID743026 (Vanderbilt Specialized Chemistry Center, 2013)
pIC50: −log10 of the molar value. The source made the active and inactive calls.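 Rule for the calls: active = IC50 under 10 µM against human M5, lowering the acetylcholine-driven calcium signal; inactive = the rest.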

Molecular target: Muscarinic acetylcholine receptor M5 (Homo sapiens) (UniProt P08912)
Experiment: M5 muscarinic receptor negative allosteric modulators, dose response, cell-based, concentration-response curves, human M5 (AID 743026)
Settings: CHO-K1 hM5, ACh EC80 calcium flux, Fluo-4; for % of max ACh response: at 30 µM (top of the series)

Muscarinic acetylcholine receptor M5 (Homo sapiens), sequence (P08912 whole entry, looked up): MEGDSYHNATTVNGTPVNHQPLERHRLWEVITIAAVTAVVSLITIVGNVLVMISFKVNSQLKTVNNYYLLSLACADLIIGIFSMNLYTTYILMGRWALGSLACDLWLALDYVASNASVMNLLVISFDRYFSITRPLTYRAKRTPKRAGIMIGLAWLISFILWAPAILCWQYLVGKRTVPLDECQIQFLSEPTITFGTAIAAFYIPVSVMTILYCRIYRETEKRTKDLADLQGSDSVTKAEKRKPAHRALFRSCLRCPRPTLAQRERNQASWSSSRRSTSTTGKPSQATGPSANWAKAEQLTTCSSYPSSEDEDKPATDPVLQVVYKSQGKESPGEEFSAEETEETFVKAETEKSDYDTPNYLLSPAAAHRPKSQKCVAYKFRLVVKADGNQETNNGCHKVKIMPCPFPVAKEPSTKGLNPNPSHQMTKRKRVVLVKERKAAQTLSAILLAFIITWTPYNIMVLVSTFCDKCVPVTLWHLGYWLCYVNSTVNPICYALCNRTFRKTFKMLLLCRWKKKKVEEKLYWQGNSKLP

## O=C1c2ccccc2C2(c3ccccc3)NCCN12 (centres undefined)
  % of max ACh response: inactive

## O=C(c1ccc2c(c1)OCO2)N1CCN2C(=O)c3ccccc3C12c1ccc(Cl)cc1 (centres undefined)
  pIC50: 5.67

## O=C(c1ccc(C(F)(F)F)cc1)N1CCN2C(=O)c3ccccc3C12c1ccccc1 (centres undefined)
  pIC50: 5.71

## O=C(c1ccc(C(F)(F)F)cc1)N1CCN2C(=O)c3ccccc3C12c1ccc(Cl)cc1 (centres undefined)
  pIC50: 5.68

## O=C(c1cccc(C(F)(F)F)c1)N1CCN2C(=O)c3ccccc3C12c1ccccc1 (centres undefined)
  pIC50: 5.52

## O=C(c1cc(Cl)cc(Cl)c1)N1CCN2C(=O)c3ccccc3C12c1ccccc1 (centres undefined)
  pIC50: 5.24

## O=C(c1ccc(OC(F)F)cc1)N1CCN2C(=O)c3ccccc3C12c1ccc(Cl)cc1 (centres undefined)
  pIC50: 5.31

## O=C(c1ccc(OC(F)(F)F)cc1)N1CCN2C(=O)c3ccccc3C12c1ccccc1 (centres undefined)
  pIC50: 5.35

## COc1ccc(C23c4ccccc4C(=O)N2CCN3C(=O)c2ccc(F)c(F)c2)cc1 (centres undefined)
  pIC50: 5.90

## Cc1ccc(C23c4ccccc4C(=O)N2CCN3C(=O)c2ccc(SC(F)(F)F)cc2)cc1 (centres undefined)
  pIC50: 5.39

## O=C(c1ccc(SC(F)(F)F)cc1)N1CCN2C(=O)c3ccccc3C12c1ccc(Cl)cc1 (centres undefined)
  pIC50: 5.51

## Cc1ccc(C23c4ccccc4C(=O)N2CCN3C(=O)c2ccc(OC(F)(F)F)cc2)cc1 (centres undefined)
  pIC50: 5.46

## C[C@H]1CN(C(=O)c2ccc(F)c(F)c2)[C@]2(c3ccc(Cl)cc3)c3ccccc3C(=O)N12
  % of max ACh response: inactive

## COc1ccc(C23c4ccccc4C(=O)N2CCN3C(=O)c2ccc(OC(F)(F)F)cc2)cc1 (centres undefined)
  pIC50: 5.17

## O=C(c1ccc(F)c(F)c1)N1CCN2C(=O)c3ncccc3C12c1ccccc1 (centres undefined)
  % of max ACh response: inactive

## O=C(c1ccccc1)N1CCN2C(=O)c3ccccc3C12c1ccc(Cl)cc1 (centres undefined)
  pIC50: 5.79

## O=C(c1ccc(F)cc1)N1CCN2C(=O)c3ncccc3C12c1ccccc1 (centres undefined)
  % of max ACh response: inactive

## Cc1ccc(C(=O)N2CCN3C(=O)c4ccccc4C23c2ccc(Cl)cc2)cc1 (centres undefined)
  pIC50: 5.38

## O=C(c1cccc(C(F)(F)F)c1)N1CCN2C(=O)c3ccccc3C12c1ccc(F)cc1 (centres undefined)
  pIC50: 5.68

## O=C(c1ccc(F)c(F)c1)N1CCCC1(c1ccccc1)c1ccc(Cl)cc1 (centres undefined)
  % of max ACh response: inactive

## O=C(c1ccc(SC(F)(F)F)cc1)N1CCN2C(=O)c3ccccc3C12c1ccccc1 (centres undefined)
  pIC50: 5.86

## C=CCOc1ccc(C23c4ccccc4C(=O)N2CCN3C(=O)c2ccc(F)c(F)c2)cc1 (centres undefined)
  pIC50: 5.05

## O=C(c1cc(F)cc(F)c1)N1CCN2C(=O)c3ccccc3C12c1ccccc1 (centres undefined)
  pIC50: 5.42

## O=C(c1ccc(OC(F)(F)F)cc1)N1CCN2C(=O)c3ccccc3C12c1ccc(Cl)cc1 (centres undefined)
  pIC50: 5.63

## O=C(c1ccc(F)c(F)c1)N1CCN2C(=O)c3ccccc3C12c1ccccc1 (centres undefined)
  pIC50: 5.99

## Cc1ccc(C23c4ccccc4C(=O)N2CCN3C(=O)c2ccc(F)c(F)c2)cc1 (centres undefined)
  pIC50: 5.58

## COc1ccc(C23c4ccccc4C(=O)N2CCN3C(=O)c2ccc(SC(F)(F)F)cc2)cc1 (centres undefined)
  pIC50: 5.09

## O=C(c1ccc(SC(F)(F)F)cc1)N1CCN2C(=O)c3ccccc3C12c1ccc(F)cc1 (centres undefined)
  pIC50: 5.89

## O=C1CCC2(c3ccccc3)N1CCN2C(=O)c1ccc(F)cc1 (centres undefined)
  % of max ACh response: inactive

## CC(C)Oc1ccc(C(=O)N2CCN3C(=O)c4ccccc4C23c2ccc(Cl)cc2)cc1 (centres undefined)
  pIC50: 6.10

## Cc1ccc(C23c4ccccc4C(=O)N2CCN3C(=O)c2cc(F)cc(F)c2)cc1 (centres undefined)
  pIC50: 5.63

## O=C(c1ccc(F)cc1)N1CCN2C(=O)c3ccccc3C12c1ccccc1 (centres undefined)
  pIC50: 5.46

## O=C(c1cccc(C(F)(F)F)c1)N1CCN2C(=O)c3ccccc3C12c1ccc(Cl)cc1 (centres undefined)
  pIC50: 5.31

## CSc1ccc(C23c4ccccc4C(=O)N2CCN3C(=O)c2ccc(F)c(F)c2)cc1 (centres undefined)
  pIC50: 5.82

## O=C1c2ncccc2C2(c3ccccc3)NCCN12 (centres undefined)
  % of max ACh response: inactive

## O=C(c1ccc(F)cc1)N1CCN2C(=O)c3ccccc3C12c1ccc(Cl)cc1 (centres undefined)
  % of max ACh response: inactive

## COc1cccc(C(=O)N2CCN3C(=O)c4ccccc4C23c2ccc(Cl)cc2)c1 (centres undefined)
  pIC50: 5.18

## C[C@H]1CN[C@]2(c3ccc(Cl)cc3)c3ccccc3C(=O)N12
  % of max ACh response: inactive

## O=C(c1cc(F)cc(F)c1)N1CCN2C(=O)c3ccccc3C12c1ccc(Cl)cc1 (centres undefined)
  pIC50: 5.97
